Data on 1 compound can be found in ChEMBL document CHEMBL1275431, “Telavancin penetration into human epithelial lining fluid determined by population pharmacokinetic modeling and Monte Carlo simulation” (Antimicrob Agents Chemother, 2008).

A short description of data set [1]: Plasma protein binding in human plasma at 750 mg administered as single dose. In kind it is ADME, organism-based. The conditions noted are these: read-out: PPB (converted).
Data set [2] in a line: AUC (0 to infinity) in human epithelial lining fluid at 750 mg administered as single dose. Set-up: dose 750 mg, time infinity. In kind it is ADME, tissue-based.
Data set [3] is described as follows: Penetration ratio, ratio of AUC in human epithelial lining fluid to fAUC in human plasma at 750 mg administered as single dose. The format is ADME. The note with it: in vivo.

Regarding `CCCCCCCCCCNCCN[C@@]1(C)C[C@H](O[C@H]2[C@H](Oc3c4cc5cc3Oc3ccc(cc3Cl)[C@@H](O)[C@@H](NC(=O)[C@@H](CC(C)C)NC)C(=O)N[C@@H](CC(N)=O)C(=O)N[C@H]5C(=O)N[C@H]3C(=O)N[C@H](C(=O)N[C@H](C(=O)O)c5cc(O)c(CNCP(=O)(O)O)c(O)c5-c5cc3ccc5O)[C@H](O)c3ccc(c(Cl)c3)O4)O[C@H](CO)[C@@H](O)[C@@H]2O)O[C@@H](C)[C@H]1O` [TELAVANCIN], the fraction unbound in data set [1] is 0.1. The compound also yielded an AUC(0-inf) in data set [2] of 74800 ng·h/mL. Also, the Ratio in data set [3] is 1.01.
